The structures appear in SMILES notation. ≈ marks a conversion by molar mass, not a printed value.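 Cells were grown in 96-well plates and exposed to each compound for 48 hours at five concentrations; endpoints were interpolated linearly between bracketing concentrations, or set to the highest concentration if not reached. GI50 = concentration required for 50% inhibition of growth. TGI is the concentration that stops growth completely.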 A value given as a limit tells only on which side of the number the result lay.

Among the test systems are NCI/ADR-RES ovarian; UACC-62 melanoma; K-562 leukemia; HS 578T breast; RPMI-8226 leukemia; CCRF-CEM leukemia; MALME-3M melanoma; MDA-MB-435; T-47D breast; NCI-H226 lung.
Experiment in all cases: NCI-60 cell line screen, 48 h

As for `CC(=O)c1c(C)nc(SSc2nc(C)c(C(C)=O)c(-c3ccc(Cl)cc3)c2C#N)c(C#N)c1-c1ccc(Cl)cc1`, the GI50 was 118 µg/mL (≈ 196 µM) with NCI/ADR-RES ovarian; 29 µg/mL (≈ 48 µM) with UACC-62 melanoma; 60.6 µg/mL (≈ 100 µM) with K-562 leukemia; 22.9 µg/mL (≈ 37.9 µM) in the experiment on HS 578T breast; over 150 µg/mL with RPMI-8226 leukemia; over 150 µg/mL in the experiment with CCRF-CEM leukemia. Further, the GI50 is 50.9 µg/mL in the experiment with MALME-3M melanoma, over 150 µg/mL in the experiment on MDA-MB-435 and 36.1 µg/mL (≈ 59.8 µM) in the experiment with T-47D breast. The TGI was over 150 µg/mL in the experiment on NCI/ADR-RES ovarian; over 150 µg/mL in the experiment with UACC-62 melanoma; over 150 µg/mL in the experiment on K-562 leukemia; 54.8 µg/mL with HS 578T breast; over 150 µg/mL in the experiment on RPMI-8226 leukemia; over 150 µg/mL in the experiment with CCRF-CEM leukemia. Also, the TGI with MALME-3M melanoma, in the experiment on MDA-MB-435 and with T-47D breast was over 150 µg/mL in each case.

Turning to `O=C(N/N=C/c1cc(Cl)cc(Cl)c1[O-])c1ccccc1O.O=C(N/N=C/c1cc(Cl)cc(Cl)c1[O-])c1ccccc1O.[Co+2]`, the TGI came out at 3.43 µM in the experiment on UACC-62 melanoma, 4.1 µM in the experiment with NCI-H226 lung and 16 µM in the experiment with MALME-3M melanoma. Further, the GI50 in the experiment on MALME-3M melanoma was 2.19 µM.

Regarding `CC(=O)Nc1ccc(C(=O)NN2C(=O)C(Cl)/C2=C/c2ccco2)cc1` (stereo not drawn), the TGI with UACC-62 melanoma, in the experiment on K-562 leukemia, with RPMI-8226 leukemia, with NCI-H226 lung, with CCRF-CEM leukemia and with MALME-3M melanoma was over 100 µM in each case.

Take `CC(=O)OCC1OC(n2cc(F)c(=O)[nH]c2=O)C(NC(=O)OCc2ccccc2)C(OC(C)=O)C1OC(C)=O` (stereo not drawn): the TGI with NCI/ADR-RES ovarian, in the experiment with UACC-62 melanoma, in the experiment with K-562 leukemia, in the experiment on RPMI-8226 leukemia, in the experiment on NCI-H226 lung and in the experiment with CCRF-CEM leukemia was over 100 µM in each case. This compound returned a TGI with MALME-3M melanoma of over 100 µM.

For the compound `CCP(=O)(CC)C(Cl)Cl`, the TGI with NCI/ADR-RES ovarian, in the experiment with K-562 leukemia, in the experiment with HS 578T breast, in the experiment with RPMI-8226 leukemia, with NCI-H226 lung and in the experiment on CCRF-CEM leukemia was over 100 µM in each case. The TGI in the experiment with MDA-MB-435 and with T-47D breast was over 100 µM in each case.

For `Nc1[nH]nc(Nc2ccc(Cl)cc2)c1P(=O)(c1ccccc1)c1ccccc1`, the TGI in the experiment with NCI/ADR-RES ovarian is 52.3 µM; in the experiment on UACC-62 melanoma, 56.4 µM; with K-562 leukemia, over 100 µM; in the experiment on HS 578T breast, 37.2 µM; in the experiment on RPMI-8226 leukemia, over 100 µM; in the experiment with NCI-H226 lung it was 50.2 µM. In addition, the TGI was 86.1 µM in the experiment on CCRF-CEM leukemia, 47.9 µM with MALME-3M melanoma, 42.8 µM in the experiment with MDA-MB-435 and over 100 µM in the experiment with T-47D breast.

Values taken from PubChem BioAssay (NCI).
